Several values for one entry are separate records, joined by “and”; a condition that tells them apart may be missing. Equal values may be shown once. Inconclusive results and toxic doses are left out. Cut-off read from the data, not from the text of the source: active = T/C of 150% or more; inactive = T/C below 125%.
Tested on: L1210 leukemia ip in BDF1 mice, survival T/C
Assay: NCI In Vivo Anticancer Drug Screen. Data for tumor model L1210 Leukemia (intraperitoneal) in B6D2F1 (BDF1) mice
Conditions: endpoint: mean survival time, higher = longer survival
Procedure, shortened: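 Ratio derived from survival: compound-dosed mice over vehicle-dosed mice, all bearing a transplantable tumor.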

[1] = dose: 37.5 mg/kg/injection, schedule: Q01DX009 (ip), vehicle: saline
[2] = dose: 75.0 mg/kg/injection, schedule: Q01DX001 (ip), vehicle: saline
[3] = dose: 100.0 mg/kg/injection, schedule: Q01DX001 (ip), vehicle: saline
[4] = dose: 200.0 mg/kg/injection, schedule: Q01DX001 (ip), vehicle: saline
[5] = dose: 100.0 mg/kg/injection, schedule: Q01DX009 (ip), vehicle: Klucel (hydroxypropylcellulose) (HPC)
[6] = dose: 100.0 mg/kg/injection, schedule: Q04DX003 (ip), vehicle: Klucel (hydroxypropylcellulose) (HPC)
[7] = dose: 100.0 mg/kg/injection, schedule: Q04DX003 (ip), vehicle: saline
[8] = dose: 200.0 mg/kg/injection, schedule: Q04DX003 (ip), vehicle: saline
[9] = dose: 400.0 mg/kg/injection, schedule: Q04DX003 (ip), vehicle: saline
[10] = dose: 200.0 mg/kg/injection, schedule: Q01DX009 (ip), vehicle: Klucel (hydroxypropylcellulose) (HPC)
[11] = dose: 200.0 mg/kg/injection, schedule: Q04DX003 (ip), vehicle: Klucel (hydroxypropylcellulose) (HPC)
[12] = dose: 400.0 mg/kg/injection, schedule: Q01DX009 (ip), vehicle: Klucel (hydroxypropylcellulose) (HPC)
[13] = dose: 400.0 mg/kg/injection, schedule: Q04DX003 (ip), vehicle: Klucel (hydroxypropylcellulose) (HPC)

Measured: T/C

Oc1ccccc1O.[O-]c1ccccc1[O-].[O-]c1ccccc1[O-].[O]=[V+2]
inactive: dose: 4.0 mg/kg/injection, schedule: Q01DX015 (ip), vehicle: saline 100 % of control | dose: 8.0 mg/kg/injection, schedule: Q01DX015 (ip), vehicle: saline 94 % of control | dose: 12.5 mg/kg/injection, schedule: Q04DX003 (ip), vehicle: saline 111 % of control | dose: 16.0 mg/kg/injection, schedule: Q01DX015 (ip), vehicle: saline 96 % of control | dose: 18.75 mg/kg/injection, schedule: Q01DX009 (ip), vehicle: saline 90 % of control | dose: 25.0 mg/kg/injection, schedule: Q04DX003 (ip), vehicle: saline 102 % of control | dose: 32.0 mg/kg/injection, schedule: Q01DX015 (ip), vehicle: saline 102 % of control | [1] 101 % of control | dose: 50.0 mg/kg/injection, schedule: Q04DX003 (ip), vehicle: saline 100 % of control | dose: 75.0 mg/kg/injection, schedule: Q04DX003 (ip), vehicle: saline 97 % of control

CCCCCCCCCCCCCCCCSS(=O)(=O)c1ccc(C)cc1
inactive: [2] 98 % of control | dose: 150.0 mg/kg/injection, schedule: Q01DX001 (ip), vehicle: saline 91 % of control | dose: 300.0 mg/kg/injection, schedule: Q01DX001 (ip), vehicle: saline 90 % of control

Nc1nc(N)c(N=Nc2ccc(S(=O)(=O)Nc3ccccn3)cc2)c(N)n1
inactive: [3] 101 % of control | [4] 95 % of control

COc1ccc(/C=C/c2cc[n+](C)cc2)cc1OC
inactive: dose: 75.0 mg/kg/injection, schedule: Q01DX001 (ip), vehicle: carboxymethylcellulose (CMC) 111 % of control | dose: 150.0 mg/kg/injection, schedule: Q01DX001 (ip), vehicle: carboxymethylcellulose (CMC) 109 % of control | dose: 300.0 mg/kg/injection, schedule: Q01DX001 (ip), vehicle: carboxymethylcellulose (CMC) 103 % of control

Cc1nccn1CC(=O)c1ccccc1
inactive: dose: 25.0 mg/kg/injection, schedule: Q01DX001 (ip), vehicle: Klucel (hydroxypropylcellulose) (HPC) 102 % of control | dose: 25.0 mg/kg/injection, schedule: Q01DX009 (ip), vehicle: Klucel (hydroxypropylcellulose) (HPC) 91 % of control | dose: 25.0 mg/kg/injection, schedule: Q04DX003 (ip), vehicle: Klucel (hydroxypropylcellulose) (HPC) 100 % of control | dose: 50.0 mg/kg/injection, schedule: Q01DX001 (ip), vehicle: Klucel (hydroxypropylcellulose) (HPC) 113 % of control | dose: 50.0 mg/kg/injection, schedule: Q01DX009 (ip), vehicle: Klucel (hydroxypropylcellulose) (HPC) 94 % of control and 108 % of control | dose: 50.0 mg/kg/injection, schedule: Q04DX003 (ip), vehicle: Klucel (hydroxypropylcellulose) (HPC) 103 % of control | dose: 100.0 mg/kg/injection, schedule: Q01DX001 (ip), vehicle: Klucel (hydroxypropylcellulose) (HPC) 95 % of control | [5] 97 % of control | dose: 100.0 mg/kg/injection, schedule: Q04DX002 (ip), vehicle: Klucel (hydroxypropylcellulose) (HPC) 96 % of control and 106 % of control | [6] 94 % of control | dose: 200.0 mg/kg/injection, schedule: Q04DX002 (ip), vehicle: Klucel (hydroxypropylcellulose) (HPC) 101 % of control

C[N+]1(CCCCCNC2=CC(=O)C(NCCCCC[N+]3(C)CCCCC3)=CC2=O)CCCCC1
inactive: dose: 0.1 mg/kg/injection, schedule: Q01DX001 (ip), vehicle: saline 96 % of control

O=C1CCSc2ccccc21
inactive: [1] 102 % of control | dose: 75.0 mg/kg/injection, schedule: Q01DX009 (ip), vehicle: saline 111 % of control | dose: 100.0 mg/kg/injection, schedule: Q01DX001 (ip), vehicle: carboxymethylcellulose (CMC) 92 % of control | dose: 100.0 mg/kg/injection, schedule: Q01DX009 (ip), vehicle: saline sonified 105 % of control | dose: 100.0 mg/kg/injection, schedule: Q04DX003 (ip), vehicle: other 96 % of control | dose: 150.0 mg/kg/injection, schedule: Q01DX009 (ip), vehicle: saline 104 % of control | dose: 200.0 mg/kg/injection, schedule: Q01DX001 (ip), vehicle: carboxymethylcellulose (CMC) 106 % of control | dose: 200.0 mg/kg/injection, schedule: Q01DX009 (ip), vehicle: saline sonified 93 % of control | dose: 200.0 mg/kg/injection, schedule: Q04DX003 (ip), vehicle: other 96 % of control | dose: 400.0 mg/kg/injection, schedule: Q01DX001 (ip), vehicle: carboxymethylcellulose (CMC) 111 % of control | dose: 400.0 mg/kg/injection, schedule: Q01DX009 (ip), vehicle: saline sonified 97 % of control | dose: 400.0 mg/kg/injection, schedule: Q04DX003 (ip), vehicle: other 102 % of control

NC(N)=NCCN=C(N)N
inactive: dose: 15.0 mg/kg/injection, schedule: Q01DX Z (oral), vehicle: saline 97 % of control | dose: 30.0 mg/kg/injection, schedule: Q01DX Z (oral), vehicle: saline 103 % of control | dose: 60.0 mg/kg/injection, schedule: Q01DX Z (oral), vehicle: saline 101 % of control | dose: 120.0 mg/kg/injection, schedule: Q01DX Z (oral), vehicle: saline 95 % of control

CCOCc1cn(CCCc2ccccc2)c(=O)[nH]c1=O
inactive: dose: 12.5 mg/kg/injection, schedule: Q04DX002 (ip), vehicle: Klucel (hydroxypropylcellulose) (HPC) 106 % of control | dose: 25.0 mg/kg/injection, schedule: Q04DX002 (ip), vehicle: Klucel (hydroxypropylcellulose) (HPC) 102 % of control | dose: 50.0 mg/kg/injection, schedule: Q04DX002 (ip), vehicle: Klucel (hydroxypropylcellulose) (HPC) 106 % of control

O=C(N/N=C/C=C/c1ccccc1)[C@H](O)[C@@H](O)C(=O)N/N=C/C=C/c1ccccc1
inactive: [3] 92 % of control | dose: 100.0 mg/kg/injection, schedule: Q01DX009 (ip), vehicle: acetone 90 % of control | [7] 88 % of control | [4] 93 % of control | [8] 88 % of control | dose: 400.0 mg/kg/injection, schedule: Q01DX001 (ip), vehicle: saline 93 % of control | dose: 400.0 mg/kg/injection, schedule: Q01DX009 (ip), vehicle: acetone 92 % of control | [9] 97 % of control

Cc1[nH]c(=O)[nH]c(=O)c1C
inactive: [5] 106 % of control | [6] 102 % of control | [10] 103 % of control | [11] 98 % of control | [12] 93 % of control | [13] 91 % of control

CCC(=O)OC1C(C)OC(OC2C(C)OC(O[C@H]3[C@@H](CC=O)C[C@@H](C)[C@@H](O)/C=C/C=C/C[C@@H](C)OC(=O)C[C@@H](OC(=O)CC)[C@@H]3OC)C(O)C2N(C)C)CC1(C)O (stereo not given in full)
inactive: [5] 96 % of control | [6] 104 % of control | [10] 93 % of control | [11] 95 % of control | [12] 98 % of control | [13] 91 % of control

O=C(O)CN(Cc1ccccc1)C(=O)COc1ccc(Cl)c(Cl)c1
inactive: dose: 100.0 mg/kg/injection, schedule: Q04DX003 (ip), vehicle: gum acacia 100 % of control | dose: 200.0 mg/kg/injection, schedule: Q04DX003 (ip), vehicle: gum acacia 92 % of control | dose: 400.0 mg/kg/injection, schedule: Q04DX003 (ip), vehicle: gum acacia 91 % of control

OCCOc1ccccc1
inactive: dose: 100.0 mg/kg/injection, schedule: Q04DX002 (ip), vehicle: saline with Tween-80 100 % of control | dose: 200.0 mg/kg/injection, schedule: Q04DX002 (ip), vehicle: saline with Tween-80 95 % of control | dose: 400.0 mg/kg/injection, schedule: Q04DX002 (ip), vehicle: saline with Tween-80 91 % of control

CCC(C1=NC(C)(C)CO1)c1ccccc1Br (stereo not given)
inactive: [7] 97 % of control | [8] 98 % of control | [9] 88 % of control

CCOC(=O)C(C#N)=C1CC(C)OC(C)C1 (stereo not given)
inactive: dose: 100.0 mg/kg/injection, schedule: Q04DX003 (ip), vehicle: saline with Tween-80 100 % of control | dose: 200.0 mg/kg/injection, schedule: Q04DX003 (ip), vehicle: saline with Tween-80 97 % of control | dose: 400.0 mg/kg/injection, schedule: Q04DX003 (ip), vehicle: saline with Tween-80 103 % of control

CCC1(C(C)Br)OC2=C(CC(C#N)(C#N)C(C#N)(C#N)C2)O1 (stereo not given)
inactive: dose: 25.0 mg/kg/injection, schedule: Q01DX009 (ip), vehicle: other 100 % of control | dose: 50.0 mg/kg/injection, schedule: Q01DX009 (ip), vehicle: saline 87 % of control | [2] 100 % of control | dose: 75.0 mg/kg/injection, schedule: Q01DX009 (ip), vehicle: other 87 % of control
